In patent publication US4981792A, “Immunosuppressant compound” (Merck & Co., Inc., priority 1988, dated 1991):
Where “and” joins values, the source holds several entries; their conditions need not be identical. Identical values can stand only once. Entries after “also recorded” stand apart in the source; their conditions may differ. Like-named read-outs stand apart in the source and are kept apart here.

Assays:
mouse T lymphocytes = experiment: T-cell proliferation assay (ionomycin plus PMA induced, tritiated thymidine uptake); assay type: cell-based, mouse (C57Bl/6)
Protocol: The principle of this assay is to measure the proliferation of mouse T lymphocytes stimulated with the combination of ionomycin plus PMA. A positive sample in this assay will inhibit T-cell proliferation, as indicated by reduced tritiated thymidine uptake.
Purified demethomycin, as prepared by HPLC above, was dissolved in absolute ethanol at 1 mg/ml.
Spleens from C57Bl/6 mice were taken under sterile conditions and gently dissociated in ice-cold RPMI 1640 culture medium (GIBCO, Grand Island, N.Y.) supplemented with 10% heat-inactivated fetal calf serum (GIBCO). Cells were pelleted by centrifugation at 1500 rpm for 8 minutes. Contaminating red cells were removed by treating the pellet with ammonium chloride lysing buffer (GIBCO) for 2 minutes at 4° C. Cold medium was added and cells were again centrifuged at 1500 rpm for 8 minutes. T lymphocytes were then isolated by separation of the cell suspension on nylon wool columns as follows: Nylon wool columns were prepared by packing approximately 4 grams of washed and dried nylon wool into 20 ml plastic syringes. The columns were sterilized by autoclaving at 250° F. for 30 minutes. Nylon wool columns were wetted with warm (37° C.) culture medium and rinsed with the same medium. Washed spleen cells resuspended in warm medium were slowly applied to the nylon wool. The columns were then incubated in an upright position at 37° C. for 1 hour. Non-adherent T lymphocytes were eluted from the columns with warm culture medium and the cell suspensions were spun as above.
Purified T lymphocytes were resuspended at 2.5×10^5 cells/ml in complete culture medium composed of RPMI 1640 medium with 10% neat-inactivated fetal calf serum, […], 1 mM sodium pyruvate, 2×10^-5 M 2-mercaptoethanol and 50 μg/ml gentamycin. Ionomycin was added at 250 ng/ml and PMA at 10 ng/ml. The cell suspension was immediately distributed into 96 well flat-bottom microculture plates (Costar) at 200 μl/well. The control, being the medium without test drug, and various below-indicated dilutions of the sample (above-describedpurified demethomycin; to be tested were then added in triplicate wells at 20 μl/well. L-679,934 was used as a standard. The culture plates were then incubated at 37° C. in a humidified atmosphere of 5% CO2 -95% air for 44 hours. The proliferation of T lymphocytes was assessed by measurement of tritiated thymidine incorporation. After 44 hours of culturing, the cells were pulse-labelled with 2 μCi/well of tritiated thymidine (NEN, Cambridge, MA). After another 4 hours of incubation, cultures were harvested on glass fiber filters using a multiple sample narvester. Radioactivity of filter discs corresponding to individual wells was measured by standard liquid scintillation counting methods (Betacounter). Mean counts per minute of replicate wells were calculated and the results expressed as percent inhibition of tritiated thymidine uptake (proliferation) as follows: [formula]
1. Mouse T cell cultures were pulsed with ^3 Hthymidine for 4 hours
prior to harvesting at 48 hours.

[1] = reputed; immunosuppressant, vs cyclosporin; cited from earlier work

Compound | inhibition at 0.01 µg/mL (mouse T lymphocytes; Mus musculus, T-lymphocyte, read-out: % inhibition of T-cell proliferation (standard)) [%] | effectiveness relative to cyclosporin [1] [times] | Reversal of inhibition of T-cell proliferation by recombinant IL2 (mouse T lymphocytes; 50 μ/ml of IL2 (recombinant IL2) added at initiation of culture) | inhibition at 0.00029 µg/mL (mouse T lymphocytes; Mus musculus, T-lymphocyte, 0.29 ng/ml, harvest at 48 hours) [%] | inhibition at 0.00044 µg/mL (mouse T lymphocytes; Mus musculus, T-lymphocyte, 0.44 ng/ml, harvest at 48 hours) [%] | inhibition at 0.00066 µg/mL (mouse T lymphocytes; Mus musculus, T-lymphocyte, 0.66 ng/ml, harvest at 48 hours) [%] | inhibition at 0.00099 µg/mL (mouse T lymphocytes; Mus musculus, T-lymphocyte, 0.99 ng/ml, harvest at 48 hours) [%] | inhibition at 0.0015 µg/mL (mouse T lymphocytes; Mus musculus, T-lymphocyte, 1.5 ng/ml, harvest at 48 hours) [%] | inhibition at 0.0022 µg/mL (mouse T lymphocytes; Mus musculus, T-lymphocyte, 2.2 ng/ml, harvest at 48 hours) [%] | inhibition at 0.0033 µg/mL (mouse T lymphocytes; Mus musculus, T-lymphocyte, 3.3 ng/ml, harvest at 48 hours) [%] | inhibition at 0.005 µg/mL (mouse T lymphocytes; Mus musculus, T-lymphocyte, 5 ng/ml, harvest at 48 hours) [%] | IC50 (mouse T lymphocytes; Mus musculus, T-lymphocyte, T-cell proliferation, harvest at 48 hours, read-out: IC50) | IC50 (mouse T lymphocytes; Mus musculus, T-lymphocyte, generally in the range, read-out: IC50, general range) [nM] | immunosuppressive activity / inhibition of T-cell activation (qualitative) (mouse T lymphocytes; T-cell proliferation assay)
C=CC[C@@H]1/C=C(\C)C[C@H](C)C[C@H](OC)[C@H]2O[C@@](O)(C(=O)C(=O)N3CCCC[C@H]3C(=O)O[C@H](/C(C)=C/[C@@H]3CC[C@@H](O)[C@H](OC)C3)[C@H](C)[C@@H](O)CC1=O)[C@H](C)C[C@@H]2OC [L-679,934, reference compound] | 99 | 100 |  |  |  |  |  |  |  |  |  |  |  | 
C=CC[C@@H]1/C=C(\C)C[C@H](C)C[C@H](OC)[C@H]2O[C@@](O)(C(=O)C(=O)N3CCCC[C@H]3C(=O)O[C@H](/C(C)=C/[C@@H]3CC[C@@H](O)[C@H](O)C3)[C@H](C)[C@@H](O)CC1=O)[C@H](C)C[C@@H]2OC [demethomycin, 31-desmethoxy-31-hydroxy-L-679,934] |  |  | reversed | 0 | 0 | 36.8 | 67.1 | 80.5 | 92.9 | 97.2 | 98.1 | 0.00086 µg/mL and 1.09 nM | 0.6 to 1.2 | positive inhibition of T-cell activation; also recorded: positive immunosuppressive activity
